Reference: US6905706B2, “Medicinal herbal extract carpediol for treating depression” (Swedish Herbal Institute, priority 2002, dated 2005)

Test: Effect of co-administered extracts on the pharmacokinetics of theophylline in rats
Details: male, Wistar, rat, in vivo; for Cmax: Cmax of Theophylline; for AUC(0-inf): AUC0-∞ of Theophylline; for MRT: MRT of Theophylline
Procedure: Carpediol spissum (Batch No Ex 20404); Swedish Herbal Institute, Gothenburg, Sweden) as described above in Example 1. […] It was analyzed for purity by HPLC, Capillary electrophoresis, ^1H-NMR and ^13C-NMR. • (e) Internal standard: Methyl-4-hydroxybenzoate 99%, F.W. 152.15 Aldrich. • (f) Water, demonized and distilled. • (g) Water for High Performance Capillary Electrophoresis (HPCE), HEWLETT-PACKARD. • (h) Buffer pH=9.3 for HPCE (50 mM Borate). • (i) 0.1N Sodium Hydroxide Solution for HPCE. • (j) Chloroform HPLC grade. • (k) 2-Propanol spectrophotometric grade. • (l) Methanol Chromasorv.
Animals—In this study, 144 time-mated male Wistar rats were used. Breeder: Institute of Fine Organic Chemistry of the National Academy of Science, Yerevan. The initial weight of the animals: 130-170 g (mean weight 149.93±12.4 g). […] All animals were clinically examined upon arrival and any animal showing signs of abnormality or disease was excluded. Animals considered unsuitable for the study were replaced before the start. No animal was replaced following the start of the study.
Dosage and Administration—An appropriate amount of herbal extract was dissolved in distilled water and given at 10:00-10:30 am by oral gavage. Suspensions were shaken gently before oral administration. Suspensions were prepared fresh every day. Control animals were given an appropriate volume of drinking water. Blood samples from rats receiving the carrier only were also analyzed.
Groups of six animals were treated orally with water (10 ml×2 times per day) for three days. 60 minutes after last administration of water, a solution of Aminophylline (10 ml/kg) was given to each animal in dose of 240 mg/kg (corresponding to 192 mg/kg of Theophylline) and blood samples were taken 0.25, 0.5, 1.0, 2.0, 4.0, 6.0 and 8.0 hours after the theophylline administration. A separate group of animals was used for each time point.
It was administered orally in a volume of 10 ml/kg of body weight. Freshly prepared extract was administered two times daily for 3 consecutive days. Single dose—25 mg/kg, daily dose—50 mg/kg. 60 minutes after last administration, a water solution of Aminophylline (10 ml/kg) was given to each animal in dose of 240 mg/kg (corresponding to 192 mg/kg of Theophylline) and blood samples were taken 0.25, 0.5, 1.0, 2.0, 4.0, 6.0 and 8.0 hours after the theophylline administration. A separate group of animals was used for each time point.
One tablet of Jarsin 300 was suspended in 10 ml of water and administered two times daily for 3 consecutive days. 60 minutes after last administration, water solution of Aminophylline (10 ml/kg) was given to each animal in dose of 240 mg/kg (corresponding to 192 mg/kg of Theophylline) and blood samples were taken 0.25, 0.5, 1.0, 2.0, 4.0, 6.0 and 8.0 hours after the theophylline administration. A separate group of animals was used for each time point.
Sampling of blood and sample preparation—Animals were sacrificed by laboratory guillotine. Following decapitation, blood was collected separately in centrifuge tubes and centrifuged at 3000 rpm for 10 min. Blood serum was separated and 50 μl was taken for theophylline assay. Conservation of the samples: the centrifuge tubes were closed with caps, frozen and stored in a freezer for 1-3 days prior to bio-assay.
Analytical Method: Capillary Electrophoresis—A modified capillary electrophoresis method was used, using an internal standard and as a mobile phase 50 mM borate buffer (pH 9.3) without SDS.
Pre-assay preparation—The Ramzan et al. method (52) of extraction of theophylline from serum was modified as follows. 50 μl of blood serum was added to 10 μl of an internal standard methanol solution (methyl-paraben, 60 μg/ml) in centrifuge tube to obtain final concentration of methyl paraben 10 μg/ml. The solution was vortexed vigorously for 10 sec and 1 ml of solvent system of isopropanol. and chloroform in a 5:95 ratio was added for extraction.

[1] = Concentration of Theophylline in Rat Serum, Mean, Group 2 (CRE pretreatment 3 days), aminophylline 240 mg/kg p.o., mean n=6
[2] = Concentration of Theophylline in Rat Serum, Mean, Group 3 (Jarsin 300 pretreatment 3 days), aminophylline 240 mg/kg p.o., mean n=6
[3] = po, 240 mg/kg, Group 2 (CRE pretreatment), rats, calculated by mean concentrations
[4] = po, 240 mg/kg, Mean, Group 1 (water control), rats, mean of 6 series (column A)
[5] = po, 240 mg/kg, Mean, Group 2 (CRE pretreatment), rats, mean of 6 series (column A)
[6] = po, 240 mg/kg, Mean, Group 3 (Jarsin 300 pretreatment), rats, mean of 6 series (column A)
[7] = po, Group 3 (Jarsin 300 pretreatment), rats, calculated by mean concentrations
[8] = po, Mean, Group 3 (Jarsin 300 pretreatment), rats, mean of 6 series (column A)
[9] = po, Mean, Group 2 (CRE pretreatment), rats, mean of 6 series (column A)

## Cn1c(=O)c2[nH]cnc2n(C)c1=O [Theophylline, 1,3-dimethylxantin]
240 mg/kg, Level of theophylline in serum after 480 minutes, Group 1 (water control), rats
  concentration at 480 min: ~51000 ng/mL
Group 2 (CRE pretreatment), rats, calculated by mean concentrations, 60 minutes
  Cmax: 142000 ng/mL
Group 3 (Jarsin 300 pretreatment), rats, calculated by mean concentrations, 60 minutes
  Cmax: 41600 ng/mL
Concentration of Theophylline in Rat Serum, Group 2 (CRE pretreatment 3 days), aminophylline 240 mg/kg p.o., single rat
  concentration at 60 min: 109000 ng/mL
Concentration of Theophylline in Rat Serum, Group 3 (Jarsin 300 pretreatment 3 days), aminophylline 240 mg/kg p.o., single rat
  concentration at 15 min: 6640 ng/mL
[1]
  concentration at 15 min: 128000 ng/mL
  concentration at 30 min: 138000 ng/mL
  concentration at 60 min: 142000 ng/mL
  concentration at 120 min: 130000 ng/mL
  concentration at 240 min: 103000 ng/mL
  concentration at 360 min: 71000 ng/mL
Concentration of Theophylline in Rat Serum, Mean, Group 2 (CRE pretreatment 3 days), aminophylline 240 mg/kg p.o., 480 min, mean n=6
  concentration at 480 min: 31800 ng/mL
[2]
  concentration at 15 min: 5170 ng/mL
  concentration at 30 min: 25500 ng/mL
  concentration at 60 min: 41600 ng/mL
  concentration at 120 min: 31100 ng/mL
  concentration at 240 min: 16500 ng/mL
  concentration at 360 min: 15700 ng/mL
Concentration of Theophylline in Rat Serum, Mean, Group 3 (Jarsin 300 pretreatment 3 days), aminophylline 240 mg/kg p.o., 480 min, mean n=6
  concentration at 480 min: 9280 ng/mL
Theophylline concentration in serum after 480 minutes, Group 2 (rats treated with CRE)
  concentration at 480 min: ~32000 ng/mL
Theophylline concentration in serum after 480 minutes, Group 3 (rats treated with Jarsin 300)
  concentration at 480 min: ~9300 ng/mL
po, 240 mg/kg, Group 1 (water control), rats, single series
  AUC(0-inf): 1090 µg·h/mL
[3]
  AUC(0-inf): 956 µg·h/mL
  MRT: 5.14 h
po, 240 mg/kg, Mean, Group 1 (water control), rats, mean of 6 series
  AUC(0-inf): 1020 µg·h/mL
[4]
  AUC(0-inf): 1020 ± 109 µg·h/mL
  Cmax: 195000 ng/mL
  MRT: 6.62 h
[5]
  AUC(0-inf): 920 ± 128 µg·h/mL
  Cmax: 169000 ± 14400 ng/mL
  MRT: 4.45 ± 0.696 h
po, 240 mg/kg, Mean, Group 3 (Jarsin 300 pretreatment), rats, mean of 6 series
  AUC(0-inf): 214 µg·h/mL
[6]
  Cmax: 43900 ng/mL
  MRT: 5.44 h
po, 240 mg/kg, Group 1 (water control), rats, calculated by mean concentrations
  MRT: 6.83 h
po, 240 mg/kg, T1/2 of Theophylline, Group 1 (water control), rats, calculated by mean concentrations
  half-life: 4.66 h
po, 240 mg/kg, T1/2 of Theophylline, Group 2 (CRE pretreatment), rats, calculated by mean concentrations
  half-life: 3.39 h
po, 240 mg/kg, T1/2 of Theophylline, Mean, Group 2 (CRE pretreatment), rats, mean of 6 series (column A)
  half-life: 2.81 ± 0.404 h
po, 240 mg/kg, t1/2 of Theophylline, Mean, Group 1 (water control), rats, mean of 6 series (column A)
  half-life: 4.5 h
po, 240 mg/kg, t1/2 of Theophylline, Mean, Group 3 (Jarsin 300 pretreatment), rats, mean of 6 series (column A)
  half-life: 3.55 h
po, Group 1 (water control), rats, calculated by mean concentrations
  AUC(0-inf): 1030 µg·h/mL
[7]
  AUC(0-inf): 208 µg·h/mL
  MRT: 5.36 h
po, Mean, Group 2 (CRE pretreatment), rats, mean of 6 series
  AUC(0-inf): 920 µg·h/mL
[8]
  AUC(0-inf): 214 ± 31 µg·h/mL
  Cmax: 43900 ± 8490 ng/mL
  MRT: 5.44 ± 0.559 h
po, Group 2 (CRE pretreatment), rats, single series
  Cmax: 158000 ng/mL
po, Group 3 (Jarsin 300 pretreatment), rats, calculated by mean concentrations, 60 minutes
  Cmax: 41600 ng/mL
[9]
  Cmax: 169000 ng/mL
  MRT: 4.45 h
po, T1/2 of Theophylline, Group 3 (Jarsin 300 pretreatment), rats, calculated by mean concentrations
  half-life: 3.43 h
po, T1/2 of Theophylline, Mean, Group 2 (CRE pretreatment), rats, mean of 6 series (column A)
  half-life: 2.81 h
po, t1/2 of Theophylline, Mean, Group 3 (Jarsin 300 pretreatment), rats, mean of 6 series (column A)
  half-life: 3.55 ± 0.549 h
